Measured values as given in patent US11014896B2, “TRPA1 and TRPV4 inhibitors and methods of using the same for organ-specific inflammation and itch” (Duke University, priority 2014, dated 2021).
“Also recorded” adds a separate entry of the source.

Legend:
ET1/Edn1 = test: Edn1 mRNA (qPCR) in UVB-exposed paw-pad epidermis after topical treatment; format: in vivo, mouse; conditions: 5 mM GSK205 topical; 2 hour and 24 hour time-points
Description: (§1) GSK205 topical treatment: A viscous solution of 68% EtOH/5% glycerol plus 1 mM or 5 mM GSK205 (none for control) was applied to hindpaws by rubbing in 20 μL, applied at time-points 1 hour and again 10 min before UV exposure.

ET1 = ET1 expression by UVB-exposed 1° MK (immunocytochemistry); format: cell-based, mouse; conditions: cells preincubated with inhibitor
Description: 1° MK were exposed to UVB using the UV optical system (295 nm LED). 24 hours later the cells were fixed and fluorescently immunolabeled for ET1. Digital images were captured and subjected to morphometry.
Mouse keratinocytes were cultured on collagen coated quartz coverslips and then stimulated from the bottom using the previously mentioned UV optical system using the 295 nm LED. 24 hours later the cells were fixed in 4% formaldehyde in PBS for 20 minutes, permeabilized with 0.1% Triton X-100 in PBS for 10 minutes, washed, then blocked in 10% normal goat serum in PBS for 45 minutes. Coverslips were incubated overnight with primary antibody mouse anti-ET1 (1:200; Abcam), washed three times in PBS and incubated with secondary antibody for 2 hours at 25° C. Coverslips were washed three times in PBS, once with double-distilled H2O. Digital images were captured using a 40× immersion lens on the BX61 Olympus upright microscope. Morphometric analysis was conducted using ImageJ freeware with tailored regions-of-interest.

[1] = tested on: primary mouse keratinocytes (1° MK); test: UVB-evoked Ca++ signaling in primary mouse keratinocytes (fluo-4 imaging); format: cell-based
Description: Ca++ imaging of 1° MK was conducted following routine procedures. For UVB stimulation, a customized device was built. The system comprised a printed circuit board for electrical interconnects and mechanical support and an ultraviolet light-emitting diode (UV LED).
The operating wavelength was 295 nm (FIG. 2A), with a full-width half-max of 12 nm. The optical power was 500 mW. The focal point was aimed at the plane of the upper surface of the quartz coverslip, which was used to minimize UV absorption along the optical path towards the cells (FIG. 2A-FIG. 2C). The optical intensity at the focal point was estimated to be 150 mW/mm^2.
Ca++ imaging of mouse 1° MK in response to chemical activation of TRPV4 was conducted after loading with 2 μM fura2-AM, following a ratiometric Ca2+ imaging protocol with 340/380 nm […] for dual excitation. Ratios of emissions were acquired at 0.5 Hz. ΔR/R0 was determined as the fraction of the increase of a given ratio over baseline ratio, divided by baseline ratio. For stimulation of cells with UVB, where fura-2 was not suitable because of the proximity of stimulation with 340/380 nm and 295 nm, 2 μM fluo4-AM was used instead. Ca++ imaging was carried out at 488 nm excitation, acquisition of emissions at 0.5 Hz, expressed as ΔF/F0. In the custom-built UV optical system, UV LEDs were capped with a ball lens, a transparent optical window in the shape of a hemispherical lens (FIG. 2B). The LED output optical beam focused at 15-20 mm from the lens, with a spot diameter of approximately 1.5-2.0 mm (FIG. 2C). […] The thermal equilibration stage was set for physiological temperature.

IL-1β = IL-1β secretion by UVB-exposed 1° MK (ELISA); format: cell-based, mouse; conditions: 5 μM GSK205
Description: Before UV irradiation, culture media was replaced with PBS. The cells were then irradiated at a dose of 50 mJ/cm^2 with UVB. 24 hours later, supernatants were assayed using IL-1β ELISA (R&D Systems, Minneapolis, Minn.).

[2] = Histopathology of UVB-photodermatitis in topically treated paw-pad skin; format: in vivo, mouse; conditions: 5 mM GSK205 topical
Description: as §1

[3] = UVB permeation of paw-pad skin (sunscreen test); set-up: species or system mouse; conditions: topically applied; GSK205 5 mM
Description: The UV LED was powered with 20 mA of current, resulting in 500 μW of optical power in a circular focal spot 1.5 mm in diameter, with 70% of the total flux in a 0.5 mm beam radius. The UV optical power transmitted through the sample was detected by a Hamamatsu 5127-66BR UV detector, and the output of the photodetector was measured using a Keithley 236 source measure unit. Next, the foot-pad epidermis of a mouse was measured for UV transmission by placing it on a quartz coverslip and exposure to the UV beam. The vehicle-control group was treated with the alcohol and glycerol solution only. Another control group consisted of a commercially-available SPF100 preparation sunscreen in form of a cream, which was applied similar to the vehicle-control. The data for the GSK205 and sunscreen was normalized to this control data.

CXCL5 = test: Keratinocyte CXCL5 expression in UVB-exposed footpad after topical treatment; format: in vivo, mouse; conditions: 5 mM GSK205 topical
Description: as §1
Routine procedures were followed as described previously (Chen et al., 2009). Mice were perfused transcardially with 30 mL PBS, followed by 30 mL 4% paraformaldehyde. Tissues, including the L5 DRGs (bilateral), and footpad preparations, were dissected and post-fixed in 4% paraformaldehyde. Tissue blocks were further cryoprotected in 30% sucrose in PBS for 24-48 hours. For mouse TRPV4, keratin-specific antibodies, phospho-ERK, IL-6, IL-1β, CXCL5 and caspase-1, tissue was prepared as frozen blocks and subsequently sectioned on a cryostat. For CD68, CD15 (neutrophil elastase) and CD3, mouse skin was prepared by 2% PFA perfusion. […]

Structure (SMILES): CN(CCc1ccc(Nc2nc(-c3cccnc3)cs2)cc1)Cc1ccccc1 [GSK205]
- Edn1 mRNA expression after UVB (ET1/Edn1): unchanged; also recorded: complete lack of this regulation
- ET1 immunoreactivity (ET1): diminished; also recorded: significant down-regulation
- UVB-evoked Ca++ signaling (ΔF/F0) ([1]; GSK205 20 μM): very similar response to that of Trpv4−/− 1° MK; also recorded: strongly down-regulated; also recorded: significant attenuation
- ET1-augmented, UVB-induced Ca++ transients ([1]; UVB and ET1 co-exposure): greatly diminished
- UVB-induced increase in IL-1β secretion (IL-1β): completely eliminated; also recorded: prevention of increase in IL-1β secretion
- UVB-photodermatitis histopathology (inflammation) [2]: virtual elimination of inflammation; also recorded: markedly reduced inflammatory infiltrate
- UVB permeation of paw-pad skin vs. vehicle control [3]: equal UVB permeation; also recorded: absence of a change
- keratinocyte expression of CXCL5 in UVB-exposed footpad (CXCL5): Comparably significant blocks; also recorded: attenuates keratinocyte expression of CXCL5
